Tests used:
Assay type in all cases: in vivo
[1] = test system: Echinochloa crus-galli (ECHCG); test: Post-emergence herbicidal glasshouse test on Echinochloa crus-galli; settings: post-emergence; 1000 g/h; evaluated after 13 days
Method in brief: (§1)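 Scored on a five-point scale (1 = 0-19% to 5 = 80-100% damage) 13 days after treatment. Application rate 1000 g/h in acetone/water (50:50) containing 0.5% Tween 20, sprayed one day post-sowing for pre-emergence or eight days for post-emergence; glasshouse at 24/16° C, 14 h light, 65% humidity.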

[2] = test system: Ipomoea hederacea (IPOHE); test: Pre-emergence herbicidal glasshouse test on Ipomoea hederacea; settings: pre-emergence; 1000 g/h; evaluated after 13 days
Method in brief: as §1

[3] = test system: Alopecurus myosuroides (ALOMY); test: Post-emergence herbicidal glasshouse test on Alopecurus myosuroides; settings: post-emergence; 1000 g/h; evaluated after 13 days
Method in brief: as §1

[4] = test system: Setaria faberi (SETFA); test: Pre-emergence herbicidal glasshouse test on Setaria faberi; settings: pre-emergence; 1000 g/h; evaluated after 13 days
Method in brief: as §1

[5] = test system: Echinochloa crus-galli (ECHCG); test: Pre-emergence herbicidal glasshouse test on Echinochloa crus-galli; settings: pre-emergence; 1000 g/h; evaluated after 13 days
Method in brief: as §1

[6] = test system: Amaranthus retoflexus (AMARE); test: Pre-emergence herbicidal glasshouse test on Amaranthus retoflexus; settings: pre-emergence; 1000 g/h; evaluated after 13 days
Method in brief: as §1

[7] = test system: Ipomoea hederacea (IPOHE); test: Post-emergence herbicidal glasshouse test on Ipomoea hederacea; settings: post-emergence; 1000 g/h; evaluated after 13 days
Method in brief: as §1

[8] = test system: Solanum nigrum (SOLNI); test: Pre-emergence herbicidal glasshouse test on Solanum nigrum; settings: pre-emergence; 1000 g/h; evaluated after 13 days
Method in brief: as §1

[9] = test system: Setaria faberi (SETFA); test: Post-emergence herbicidal glasshouse test on Setaria faberi; settings: post-emergence; 1000 g/h; evaluated after 13 days
Method in brief: as §1

[10] = test system: Solanum nigrum (SOLNI); test: Post-emergence herbicidal glasshouse test on Solanum nigrum; settings: post-emergence; 1000 g/h; evaluated after 13 days
Method in brief: as §1

[11] = test system: Amaranthus retoflexus (AMARE); test: Post-emergence herbicidal glasshouse test on Amaranthus retoflexus; settings: post-emergence; 1000 g/h; evaluated after 13 days
Method in brief: as §1

[12] = test system: Alopecurus myosuroides (ALOMY); test: Pre-emergence herbicidal glasshouse test on Alopecurus myosuroides; settings: pre-emergence; 1000 g/h; evaluated after 13 days
Method in brief: as §1

Row | SMILES | POST Application ECHCG herbicidal damage (five point scale) [1] | PRE Application IPOHE herbicidal damage (five point scale) [2] | POST Application ALOMY herbicidal damage (five point scale) [3] | PRE Application SETFA herbicidal damage (five point scale) [4] | PRE Application ECHCG herbicidal damage (five point scale) [5] | PRE Application AMARE herbicidal damage (five point scale) [6] | POST Application IPOHE herbicidal damage (five point scale) [7] | PRE Application SOLNI herbicidal damage (five point scale) [8] | POST Application SETFA herbicidal damage (five point scale) [9] | POST Application SOLNI herbicidal damage (five point scale) [10] | POST Application AMARE herbicidal damage (five point scale) [11] | PRE Application ALOMY herbicidal damage (five point scale) [12]
1 | Cn1ncc(-c2cccnc2OCC(F)F)c(O)c1=O [Compound 4.011] | 1 (1=0-19% damage) | 1 (1=0-19% damage) | 1 (1=0-19% damage) | 1 (1=0-19% damage) | 1 (1=0-19% damage) | 1 (1=0-19% damage) | 3 (3=40-59% damage) | 1 (1=0-19% damage) | 1 (1=0-19% damage) | 5 (5=80-100% damage) | 4 (4=60-79% damage) | 1 (1=0-19% damage)
2 | Cn1ncc(-c2ccc(C(F)(F)F)nc2Cl)c(O)c1=O [Compound 4.014] | 3 (3=40-59% damage) | 2 (2=20-39% damage) | 1 (1=0-19% damage) | 1 (1=0-19% damage) | 5 (5=80-100% damage) | 5 (5=80-100% damage) | 5 (5=80-100% damage) | 4 (4=60-79% damage) | 2 (2=20-39% damage) | 5 (5=80-100% damage) | 5 (5=80-100% damage) | 1 (1=0-19% damage)
3 | Cn1ncc(-c2ccc(C(F)(F)F)nc2C#N)c(O)c1=O [Compound 4.015] | 1 (1=0-19% damage) | 1 (1=0-19% damage) | 1 (1=0-19% damage) | 1 (1=0-19% damage) | 1 (1=0-19% damage) | 1 (1=0-19% damage) | 1 (1=0-19% damage) | 1 (1=0-19% damage) | 1 (1=0-19% damage) | 1 (1=0-19% damage) | 1 (1=0-19% damage) | 1 (1=0-19% damage)
4 | Cn1ncc(-c2ccc(C(F)(F)F)nc2S(=O)(=O)N2CCOCC2)c(O)c1=O [Compound 4.016] | 5 (5=80-100% damage) | 5 (5=80-100% damage) | 5 (5=80-100% damage) | 5 (5=80-100% damage) | 5 (5=80-100% damage) | 5 (5=80-100% damage) | 5 (5=80-100% damage) | 5 (5=80-100% damage) | 5 (5=80-100% damage) | 5 (5=80-100% damage) | 5 (5=80-100% damage) | 5 (5=80-100% damage)
5 | CC(C)N(C)S(=O)(=O)c1nc(C(F)(F)F)ccc1-c1cnn(C)c(=O)c1O [Compound 4.017] | 5 (5=80-100% damage) | 5 (5=80-100% damage) | 5 (5=80-100% damage) | 4 (4=60-79% damage) | 5 (5=80-100% damage) | 5 (5=80-100% damage) | 5 (5=80-100% damage) | 5 (5=80-100% damage) | 5 (5=80-100% damage) | 5 (5=80-100% damage) | 5 (5=80-100% damage) | 4 (4=60-79% damage)
6 | CCn1ncc(-c2cc3cccnc3nc2C(F)(F)F)c(O)c1=O [Compound 5.001] | 5 (5=80-100% damage) | 5 (5=80-100% damage) | 5 (5=80-100% damage) | 5 (5=80-100% damage) | 5 (5=80-100% damage) | 5 (5=80-100% damage) | 5 (5=80-100% damage) | 5 (5=80-100% damage) | 5 (5=80-100% damage) | 5 (5=80-100% damage) | 5 (5=80-100% damage) | 5 (5=80-100% damage)
7 | Cc1cc(C)c2cc(-c3cnn(C)c(=O)c3O)c(C(F)(F)F)nc2n1 [Compound 5.002] | 3 (3=40-59% damage) | 3 (3=40-59% damage) | 1 (1=0-19% damage) | 1 (1=0-19% damage) | 2 (2=20-39% damage) | 5 (5=80-100% damage) | 5 (5=80-100% damage) | 1 (1=0-19% damage) | 2 (2=20-39% damage) | 5 (5=80-100% damage) | 5 (5=80-100% damage) | 1 (1=0-19% damage)
8 | Cc1cc(-c2cnn(C)c(=O)c2O)c(=O)n(-c2ccccc2)c1 [Compound 6.001] | 5 (5=80-100% damage) | 1 (1=0-19% damage) | 3 (3=40-59% damage) | 1 (1=0-19% damage) | 1 (1=0-19% damage) | 1 (1=0-19% damage) | 1 (1=0-19% damage) | 1 (1=0-19% damage) | 3 (3=40-59% damage) | 5 (5=80-100% damage) | 5 (5=80-100% damage) | 1 (1=0-19% damage)
9 | Cc1cc(-c2cnn(C)c(=O)c2O)c(=O)n(-c2ccsc2)c1 [Compound 6.002] | 1 (1=0-19% damage) | 2 (2=20-39% damage) | 1 (1=0-19% damage) | 1 (1=0-19% damage) | 1 (1=0-19% damage) | 5 (5=80-100% damage) | 2 (2=20-39% damage) | 5 (5=80-100% damage) | 1 (1=0-19% damage) | 3 (3=40-59% damage) | 4 (4=60-79% damage) | 1 (1=0-19% damage)

Source: US9693556B2, “Herbicidal pyridazinone derivatives” (SYNGENTA LIMITED, priority 2011, dated 2017)
